Test results taken from US5010058A, “3,5,6-substituted derivatives of 1,2-O-isopropylidene-α,D-glucofuranose and intermediates for preparing these derivatives” (501 Greenwich Pharmaceuticals Incorporated, priority 1989, dated 1991).
Where two headings read alike, the source gives them in different places.

Experiments:
[1] = system: normal spleen cells / splenic T-lymphocytes (Con-A stimulated); assay: Con-A blastogenic response of normal spleen cells (3H-thymidine incorporation); assay type: cell-based, mouse (C57Bl/6); settings: for Blastogenic response of normal spleen cells to Con-A: triplicates ± SD; for inhibition at 1 µg/mL / inhibition at 10 µg/mL / inhibition at 25 µg/mL / inhibition at 100 µg/mL / inhibition at 300 µg/mL / inhibition at 750 µg/mL: Mus musculus, T-lymphocyte, 72 h, percent change from no compound, read-out: Blastogenic response of normal spleen cells to Con-A, % effect
Excerpt: A simple method is used to screen compounds for their ability to modulate T-lymphocyte activity which comprises assessing the capacity of the compounds to alter the activation of murine spleen cells in response to T-lymphocyte mitogen activators, such as concanavalin-A (Con-A). The method used to measure the effects of the compounds of the present invention on the blastogenic response of spleen cells to the T-lymphocyte mitogen, (i.e., Con-A), is as follows.
Spleen cells were removed from normal C57Bl/6 mice and homogenized to obtain a single cell suspension. Erythrocytes were lysed by hypotonic shock. Upon determination of the viability and concentration of the remaining lymphoid cells, they were adjusted to a concentration of 4×10^6 /ml. These spleen cells (2×10^5 cells per […]) were seeded into wells of microtiter plates with the compounds of the present invention having the following dose concentrations:
Con-A was also added to these cultures at a final concentration of […]. These cells were cultured for 3 days at 37° C. in a humidified atmosphere of 5% CO2 in air. For the last 18 hours of culture, […] H-thymidine was added to each well. The cells were then precipitated by a multichannel harvester. The amount of ^3 H-thymidine incorporated by the cultured cells were measured in a liquid scintillation counter (Disintegrations per min., DPM). All assays were conducted in triplicate.
The incubation medium used for the blastogenesis assays was RPMI-1640 medium containing 10% fetal bovine serum, […] streptomycin, 100 U/ml penicillin, […] Hepes buffer solution, 5×10^-5 M 2-mercaptoethanol and 2 mM glutamine.
(§1) ^a Experimental compounds were first suspended in DMSO or ethanol,
^b The effect of experimental compounds on the blastogenic response o

[2] = system: BUD-8 skin cell fibroblasts; assay: Proliferation of BUD-8 skin cell fibroblasts (3H-thymidine uptake); assay type: cell-based, human; settings: for 3H-Thymidine uptake by BUD-8 skin cells: triplicates ± SD
Experimental: The human skin cell fibroblast line, BUD-8, was originally derived from the normal skin of a person and can now be obtained from the American Type Culture Collection.
The number of BUD-8 cells was expanded for use by culture in 25 cm^2 flasks at 37° C. in an atmosphere of 5% CO2 in air. At approximately 4-5 five day intervals, or when confluence was reached, the cells were passaged. This was accomplished by detaching the cells with a Teflon scraper, washing and reseeding the cells at a lower density into fresh tissue culture flasks.
The effect of these compound on the proliferative capacity of human BUD-8 skin fibroblasts was measured with the use of a ^3 H-thymidine incorporation assay using culture conditions which were similar to those used for the Con-A blastogenesis assay, described previously. Cultured skin cells were detached from the surface of tissue culture flasks mechanically with a Teflon scraper. The cells were washed, resuspended in incubation medium and the viabilities were determined. These cells were then plated in triplicate at a density of 2×10^3 cells/0.1 ml/microtiter well for the proliferation assays. […] Eighteen hours later, each of the BUD-8 cultures was examined morphologically for evidence of compound-induced toxicity such as cell rounding or granularity. The thymidine-pulsed cells were then precipitated and the amount of ^3 H-thymidine incorporation was counted in a liquid scintillation counter. […]
as §1
^b The effect of experimental compounds on the proliferation of BUD8

[3] = system: leukotriene B4 (LTB4) secretion by BUD-8 skin cell fibroblasts; assay: Secretion of LTB4 by BUD-8 skin cell fibroblasts (radioimmunoassay); assay type: cell-based, human; settings: for LTB4 in supernatant of BUD-8 skin cells: triplicate ± SD
Experimental: Levels of LTB4 in aliquots of BUD-8 skin cell cultures supernatants were quantified by radioimmunoassay. The cells were first plated in triplicate at a density of 1×10^4 cells/0.1 ml/microtiter well for the assay to quantitate LTB4. To these cells was added 0.1 ml incubation medium containing compound 80182, or nordihydroguaiaretic acid (NDGA) to inhibit leukotriene production. After 18 hours of culture, samples of the BUD-8 skin cell supernatants were collected from one set of microtiter plates and frozen until assayed for LTB4 content using a radioimmunoassay. Into a polypropylene tube were mixed 0.1 ml anti-LTB4, 0.1 ml^3 H-LTB4 and 0.1 ml LTB4 standard or LTB4 containing sample. The BUD-8 skin cell culture supernatants were used directly in the radioimmunoassay. The tubes were refrigerated overnight. A charcoal solution (0.5 ml of 0.5% charcoal Norit A) was added and each tube was centrifuged. The radio activity in the supernatant was then counted in a liquid scintillation counter. | ^a Experimental compounds were first suspended in DMSO or ethanol, | ^b The effect of experimental compounds on the amount of LTB4 in […]

[4] = Con-A 1 ug/ml, compound 1 ug/ml
[5] = Con-A 1 ug/ml, compound 10 ug/ml
[6] = Con-A 1 ug/ml, compound 25 ug/ml
[7] = Con-A 1 ug/ml, compound 100 ug/ml
[8] = Con-A 1 ug/ml, compound 300 ug/ml
[9] = Con-A 1 ug/ml, compound 750 ug/ml
[10] = Con-A 4 ug/ml, compound 1 ug/ml
[11] = Con-A 4 ug/ml, compound 10 ug/ml
[12] = Con-A 4 ug/ml, compound 25 ug/ml
[13] = Con-A 4 ug/ml, compound 100 ug/ml
[14] = Con-A 4 ug/ml, compound 300 ug/ml
[15] = Con-A 4 ug/ml, compound 750 ug/ml

With CCCCCCCCCCCNCC(O)C1OC2OC(C)(C)OC2C1O [Ex. 2, 1,2-O-Isopropylidene-6-deoxy-6-aminoundecyl-α, D-glucofuranose] the “Blastogenic response of normal spleen cells to Con-A” value (“Blastogenic response” for short) [1, 4] was 13,581 ± 4,804 cpm, the “Blastogenic response” value [1, 5] was 5,014 ± 89 cpm and the “Blastogenic response” value [1, 6] was 3,312 ± 1,541 cpm. The “Blastogenic response” value [1, 7] was 2,967 ± 964 cpm, the “Blastogenic response” value [1, 8] was 2,934 ± 299 cpm and the “Blastogenic response” value [1, 9] was 2,020 ± 651 cpm. The “Blastogenic response” value [1, 10] was 18,607 ± 8,159 cpm, the “Blastogenic response” value [1, 11] was 4,293 ± 3,517 cpm and the “Blastogenic response” value [1, 12] was 1,635 ± 635 cpm. The “Blastogenic response” value [1, 13] was 2,618 ± 444 cpm, the “Blastogenic response” value [1, 14] was 2,787 ± 413 cpm and the “Blastogenic response” value [1, 15] was 1,575 ± 480 cpm. For the same compound, the inhibition at 1 µg/mL [1, 4] was 81%, the inhibition at 10 µg/mL [1, 5] was 93% and the inhibition at 25 µg/mL [1, 6] was 95%. The inhibition at 100 µg/mL [1, 7] was 96%, the inhibition at 300 µg/mL [1, 8] was 96% and the inhibition at 750 µg/mL [1, 9] was 97%. The inhibition at 1 µg/mL [1, 10] was 81%, the inhibition at 10 µg/mL [1, 11] was 96% and the inhibition at 25 µg/mL [1, 12] was 98%. It also gave an inhibition at 100 µg/mL [1, 13] of 97%, an inhibition at 300 µg/mL [1, 14] of 97% and an inhibition at 750 µg/mL [1, 15] of 98%. For the same compound, the “anti-proliferative effect on skin cells” value [2] was “anti-proliferative effect that was statistically significant”, the inhibition at 1 µg/mL ([2]; Homo sapiens, Fibroblast, compound 1 ug/ml, percent change from no compound, read-out: 3H-Thymidine uptake by BUD-8 skin cells, % effect) was 1% and the inhibition at 10 µg/mL ([2]; Homo sapiens, Fibroblast, compound 10 ug/ml, percent change from no compound, read-out: 3H-Thymidine uptake by BUD-8 skin cells, % effect) was 46%. For the same compound, the inhibition at 25 µg/mL ([2]; Homo sapiens, Fibroblast, compound 25 ug/ml, percent change from no compound, read-out: 3H-Thymidine uptake by BUD-8 skin cells, % effect) was 77%, the inhibition at 100 µg/mL ([2]; Homo sapiens, Fibroblast, compound 100 ug/ml, percent change from no compound, read-out: 3H-Thymidine uptake by BUD-8 skin cells, % effect) was 89% and the inhibition at 300 µg/mL ([2]; Homo sapiens, Fibroblast, compound 300 ug/ml, percent change from no compound, read-out: 3H-Thymidine uptake by BUD-8 skin cells, % effect) was 90%. For the same compound, the inhibition at 750 µg/mL ([2]; Homo sapiens, Fibroblast, compound 750 ug/ml, percent change from no compound, read-out: 3H-Thymidine uptake by BUD-8 skin cells, % effect) was 85%, the “3H-Thymidine uptake by BUD-8 skin cells” value ([2]; compound 1 ug/ml) was 6,069 ± 636 cpm and the “3H-Thymidine uptake by BUD-8 skin cells” value ([2]; compound 10 ug/ml) was 3,363 ± 227 cpm. For the same compound, the “3H-Thymidine uptake by BUD-8 skin cells” value ([2]; compound 25 ug/ml) was 1,430 ± 1,176 cpm, the “3H-Thymidine uptake by BUD-8 skin cells” value ([2]; compound 100 ug/ml) was 649 ± 114 cpm and the “3H-Thymidine uptake by BUD-8 skin cells” value ([2]; compound 300 ug/ml) was 595 ± 110 cpm. For the same compound, the “3H-Thymidine uptake by BUD-8 skin cells” value ([2]; compound 750 ug/ml) was 911 ± 863 cpm, the “effect on LTB4 secretion / activity” value [3] was “produced an effect upon the secretion of leukotriene B4” and the inhibition at 1 µg/mL ([3]; Homo sapiens, Fibroblast, 18 h, compound 1 ug/ml, percent change from no compound, read-out: LTB4 secretion, % Effect) was -15%. The inhibition at 10 µg/mL ([3]; Homo sapiens, Fibroblast, 18 h, compound 10 ug/ml, percent change from no compound, read-out: LTB4 secretion, % Effect) was 37%, the inhibition at 25 µg/mL ([3]; Homo sapiens, Fibroblast, 18 h, compound 25 ug/ml, percent change from no compound, read-out: LTB4 secretion, % Effect) was 58% and the inhibition at 100 µg/mL ([3]; Homo sapiens, Fibroblast, 18 h, compound 100 ug/ml, percent change from no compound, read-out: LTB4 secretion, % Effect) was 22%. The inhibition at 300 µg/mL ([3]; Homo sapiens, Fibroblast, 18 h, compound 300 ug/ml, percent change from no compound, read-out: LTB4 secretion, % Effect) was 60%, the inhibition at 750 µg/mL ([3]; Homo sapiens, Fibroblast, 18 h, compound 750 ug/ml, percent change from no compound, read-out: LTB4 secretion, % Effect) was 42% and the “calculated LTB4 secreted/10^5 BUD-8 cells” value ([3]; compound 1 ug/ml) was 862 pg LTB4 per 10^5 cells. For the same compound, the “LTB4 in supernatant of BUD-8 skin cells” value ([3]; compound 1 ug/ml) was 44.4 ± 3.8 pg LTB4 /100 ul supernatant, the “calculated LTB4 secreted/10^5 BUD-8 cells” value ([3]; compound 10 ug/ml) was 485 pg LTB4 per 10^5 cells and the “LTB4 in supernatant of BUD-8 skin cells” value ([3]; compound 10 ug/ml) was 24.6 ± 5.3 pg LTB4 /100 ul supernatant. For the same compound, the “calculated LTB4 secreted/10^5 BUD-8 cells” value ([3]; compound 25 ug/ml) was 303 pg LTB4 per 10^5 cells, the “LTB4 in supernatant of BUD-8 skin cells” value ([3]; compound 25 ug/ml) was 16.4 ± 2.0 pg LTB4 /100 ul supernatant and the “calculated LTB4 secreted/10^5 BUD-8 cells” value ([3]; compound 100 ug/ml) was 575 pg LTB4 per 10^5 cells. The “LTB4 in supernatant of BUD-8 skin cells” value ([3]; compound 100 ug/ml) was 30.1 ± 3.9 pg LTB4 /100 ul supernatant, the “calculated LTB4 secreted/10^5 BUD-8 cells” value ([3]; compound 300 ug/ml) was 281 pg LTB4 per 10^5 cells and the “LTB4 in supernatant of BUD-8 skin cells” value ([3]; compound 300 ug/ml) was 15.3 ± 1.1 pg LTB4 /100 ul supernatant. The “calculated LTB4 secreted/10^5 BUD-8 cells” value ([3]; compound 750 ug/ml) was 422 pg LTB4 per 10^5 cells and the “LTB4 in supernatant of BUD-8 skin cells” value ([3]; compound 750 ug/ml) was 22.4 ± 4.2 pg LTB4 /100 ul supernatant.
